The results in this text go back to patent publication EP2527332A1, “4-Aryl-N-phenyl-1,3,5-triazin-2-amines containing a sulfoximine group as CDK9 inhibitors” (Bayer Intellectual Property GmbH, priority 2011, dated 2012).

One series relates to DU145 cell. The series is described as follows: Proliferation assay (crystal violet), DU145. In kind it is cell-based, human. The conditions noted are these: DU145, 4 days incubation, read-out: Inhibition of DU145 cell proliferation IC50. Here is the method:
(§1) After 24 hours, the cells of one plate (zero-point plate) were stained with crystal violet (see below), while the medium of the other plates was replaced by fresh culture medium (200 µL), to which the test substances were added in various concentrations (0 µM, as well as in the range of 0.001-10 µM; the final concentration of the solvent dimethyl sulfoxide was 0.5%). The cells were incubated for 4 days in the presence of test substances. Cell proliferation was determined by staining the cells with crystal violet: the cells were fixed by adding 20 µL/measuring point of an 11% glutaric aldehyde solution for 15 minutes at room temperature. After three washing cycles of the fixed cells with water, the plates were dried at room temperature. The cells were stained by adding 100 µL/measuring point of a 0.1% crystal violet solution (pH 3.0). After three washing cycles of the stained cells with water, the plates were dried at room temperature. The dye was dissolved by adding 100 µL/measuring point of a 10% acetic acid solution. […] The change of cell number, in percent, was calculated by normalization of the measured values to the absorbance values of the zero-point plate (=0%) and the absorbance of the untreated (0 µM) cells (=100%). The IC50 values were determined by means of a 4 parameter fit using the company's own software.

The next series concerns CACO-2 cell. The series is described as follows: Proliferation assay (crystal violet), CACO-2. In kind it is cell-based. Particulars: Homo sapiens, 96 h; CACO-2, 4 days incubation; read-out: Inhibition of CACO-2 cell proliferation IC50. Here is the method:
as §1

The next series deals with HeLa/MaTu/ADR cell. Nature of the series: Proliferation assay (crystal violet), HeLa/MaTu/ADR. Particulars: HeLa/MaTu/ADR (multidrug-resistant), 4 days incubation, read-out: Inhibition of HeLa/MaTu/ADR cell proliferation IC50. In kind it is cell-based, human. The method, then: as §1
Another series concerns H460 cell. Nature of the series: Proliferation assay (crystal violet), H460. The format is cell-based. Particulars: Homo sapiens, NCI-H460, 96 h; H460, 4 days incubation; read-out: Inhibition of H460 cell proliferation (activity range) IC50. Here is the method: as §1
In a further series the test system is HeLa cell. Nature of the series: Proliferation assay (crystal violet), HeLa. The format is cell-based, human. Particulars: 4 days incubation, read-out: Inhibition of HeLa cell proliferation IC50. Here is the method:
as §1

The subject of another series is B 16F 10 cell. Nature of the series: Proliferation assay (crystal violet), B16F10. The format is cell-based, mouse. The conditions noted are these: B16F10, 4 days incubation, read-out: Inhibition of B 16F 10 cell proliferation IC50. Here is the method: as §1
Series [1] in a line: Equilibrium shake flask solubility assay. The format is physicochemical. The conditions noted are these: phosphate buffer pH 6.5, 24 hrs, room temperature; 1440 min. The method, then: 4. Equilibrium Shake Flask Solubility Assay:
The thermodynamic solubility of compounds in water was determined by an equilibrium shake flask method (see for example: E.H. Kerns, L. Di: Drug-like Properties: Concepts, Structure Design and Methods, 276-286, Burlington, MA, Academic Press, 2008). A saturated solution of the drug was prepared and the solution was mixed for 24 h to ensure that equilibrium was reached. The solution was centrifuged to remove the insoluble fraction and the concentration of the compound in solution was determined using a standard calibration curve.
To prepare the sample, 2 mg solid compound was weighed in a 4 mL glass vial. 1 mL phosphate buffer pH 6.5 was added. The suspension was stirred for 24 hrs at room temperature. The solution was centrifuged afterwards. To prepare the sample for the standard calibration, 2 mg solid sample was dissolved in 30 mL acetonitrile. After sonification the solution was diluted with water to 50 mL.. Sample and standards were quantified by HPLC with UV-detection. For each sample two injection volumes (5 and 50 µl) in triplicates were made. Three injection volumes (5 µl, 10 µl and 20 µl) were made for the standard.
The areas of sample- and standard injections as well as the calculation of the solubility value (in mg/l) were determined by using HPLC software (Waters Empower 2 FR).

Molecules are shown by their SMILES. Like-named read-outs stand apart in the source and are kept apart here. Some results are limits rather than exact numbers.

Take `CCOC(=O)N=S(C)(=O)Cc1cccc(Nc2ncnc(-c3ccc(F)cc3OC)n2)c1` (racemic) [Compound 1, (rac)-Ethyl [(3-{[4-(4-fluoro-2-methoxyphenyl)-1,3,5-triazin-2-yl]amino}benzyl)(methyl)oxido-λ^6-sulfanylidene]carbamate]: the IC50 in the series with DU145 cell (Homo sapiens, DU-145, 96 h) is 390 nM; with CACO-2 cell it was 390 nM; with HeLa/MaTu/ADR cell (Homo sapiens, 96 h), 380 nM; with H460 cell, 360 nM; with HeLa cell (Homo sapiens, 96 h), 1000 nM; with B 16F 10 cell (Mus musculus, B16-F10, 96 h), 360 nM.

Turning to `COc1cc(F)ccc1-c1ncnc(Nc2cccc(CS(C)(=N)=O)c2)n1` (racemic) [Compound 2, (rac)-4-(4-Fluoro-2-methoxyphenyl)-N-{3-[(S-methylsulfonimidoyl)methyl]phenyl}-1,3,5-triazin-2-amine], the IC50 with HeLa cell (Homo sapiens, 96 h) was found to be 1100 nM.

With `CS(=N)(=O)Cc1cccc(Nc2ncnc(-c3ccc(F)cc3OCc3ccccc3)n2)c1` (racemic) [Compound 6, (rac)-4-[2-(Benzyloxy)-4-fluorophenyl]-N-{3-[(S-methylsulfonimidoyl)methyl]phenyl}-1,3,5-triazin-2-amine], the IC50 in the series with DU145 cell (Homo sapiens, DU-145, 96 h) was 180 nM; in the series on CACO-2 cell, 270 nM; in the series on HeLa/MaTu/ADR cell (Homo sapiens, 96 h), 200 nM; with H460 cell, 160 nM; with HeLa cell (Homo sapiens, 96 h), < 100 nM; in the series with B 16F 10 cell (Mus musculus, B16-F10, 96 h), 250 nM.

Take `CCOC(=O)N=S(C)(=O)Cc1cccc(Nc2ncnc(-c3cc(F)c(F)cc3OC)n2)c1` (racemic) [Compound 9, (rac)-Ethyl [(3-{[4-(4,5-difluoro-2-methoxyphenyl)-1,3,5-triazin-2-yl]amino}benzyl)(methyl)oxido-λ^6-sulfanylidene]carbamate]: the IC50 in the series with HeLa cell (Homo sapiens, 96 h) was 400 nM.

For `COc1cc(F)ccc1-c1ncnc(Nc2cccc(CS(C)(=N)=O)c2)n1` (single isomer, unassigned; (+)) [Compound 4, (+)-4-(4-Fluoro-2-methoxyphenyl)-N-{3-[(S-methylsulfonimidoyl)methyl]phenyl}-1,3,5-triazin-2-amine], the IC50 in the series with DU145 cell worked out at 670 nM; in the series on HeLa/MaTu/ADR cell, 440 nM; in the series on HeLa cell, 970 nM; in the series on B 16F 10 cell, 1000 nM. In series [1], the “Solubilty in mg/l. (thermodynamic solubility in water)” value was determined as 479 µg/mL.

For `COc1cc(F)ccc1-c1ncnc(Nc2cccc(CS(C)(=N)=O)c2)n1` (single isomer, unassigned; (-)) [Compound 3, (-)-4-(4-Fluoro-2-methoxyphenyl)-N-{3-[(S-methylsulfonimidoyl)methyl]phenyl}-1,3,5-triazin-2-amine], the IC50 worked out at 740 nM in the series with DU145 cell (Homo sapiens, DU-145, 96 h); 400 nM with HeLa/MaTu/ADR cell (Homo sapiens, HeLa, 96 h); 1100 nM in the series on HeLa cell (Homo sapiens, 96 h); 1000 nM in the series with B 16F 10 cell (Mus musculus, B16-F10, 96 h).
